Measurements reported in ChEMBL document CHEMBL1201862, “PubChem BioAssay data set” (2004).
Active and inactive are the calls of the source.

Experiments:
[1] = Luminescence Cell-Based Dose Response HTS to Identify Inhibitors of 5'UTR Stem-Loop Driven Prion Protein mRNA Translation in H4 Neuroglioblastoma Cells. [Related pubchem assays: 1827 (Project Summary), 1813 (Primary HTS)]; assay type: functional
[2] = inhibitors of SNCA 5'UTR-driven reporter translation, confirmation, H4 neuroglioma cells, luminescence (AID 1988); assay type: functional, cell-based
[3] = inhibitors of firefly luciferase expression or activity, dose response, H4 neuroglioma cells, luminescence (AID 1990); assay type: functional, cell-based
Cytochrome P450 2C9 = Cytochrome P450 2C9 (Homo sapiens, UniProt P11712)
Chain of Cytochrome P450 2C9 (P11712 whole entry): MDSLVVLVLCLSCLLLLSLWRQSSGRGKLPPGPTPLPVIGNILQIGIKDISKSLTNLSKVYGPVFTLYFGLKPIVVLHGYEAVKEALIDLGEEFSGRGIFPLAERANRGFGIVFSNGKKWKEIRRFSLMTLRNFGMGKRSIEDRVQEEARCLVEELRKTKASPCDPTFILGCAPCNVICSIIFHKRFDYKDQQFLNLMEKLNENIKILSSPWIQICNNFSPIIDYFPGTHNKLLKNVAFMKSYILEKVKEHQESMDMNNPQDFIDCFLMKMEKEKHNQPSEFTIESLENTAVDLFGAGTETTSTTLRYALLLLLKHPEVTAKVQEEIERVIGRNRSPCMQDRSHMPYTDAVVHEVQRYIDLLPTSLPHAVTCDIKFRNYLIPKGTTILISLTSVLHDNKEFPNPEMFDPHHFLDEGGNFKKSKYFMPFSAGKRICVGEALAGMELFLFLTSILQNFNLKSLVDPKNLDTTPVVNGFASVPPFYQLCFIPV

Cytochrome P450 2C19 = Cytochrome P450 2C19 (Homo sapiens, UniProt P33261); assay: Cytochrome panel assay with activity outcomes. Panel member name: p450-cyp2c19 Compounds with AC50 equal or less than 10 uM are considered active; assay type: functional; settings: read-out: AC50
Chain of Cytochrome P450 2C19 (P33261 whole entry): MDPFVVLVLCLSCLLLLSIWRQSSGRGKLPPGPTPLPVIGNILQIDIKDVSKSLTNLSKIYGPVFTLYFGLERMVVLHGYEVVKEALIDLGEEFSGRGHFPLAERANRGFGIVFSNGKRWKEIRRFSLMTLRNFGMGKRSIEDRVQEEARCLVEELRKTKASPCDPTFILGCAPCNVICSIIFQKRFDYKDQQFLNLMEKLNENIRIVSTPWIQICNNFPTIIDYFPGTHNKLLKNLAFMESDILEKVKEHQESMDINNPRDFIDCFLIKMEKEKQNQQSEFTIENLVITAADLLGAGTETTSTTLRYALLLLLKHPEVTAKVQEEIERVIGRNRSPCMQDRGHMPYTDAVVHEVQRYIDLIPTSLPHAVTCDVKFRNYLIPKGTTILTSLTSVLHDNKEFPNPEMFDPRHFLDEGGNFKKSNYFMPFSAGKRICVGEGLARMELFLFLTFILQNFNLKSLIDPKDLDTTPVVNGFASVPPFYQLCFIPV

[4] = Luminescence Cell-Based Dose Retest to Confirm Inhibitors of Cancer Stem Cells. [Related pubchem assays (depositor defined):AID2717, AID2721]; assay type: functional; settings: Homo sapiens
Paired box protein Pax-8 = Paired box protein Pax-8 (Homo sapiens, UniProt Q06710); assay: inhibitors of PAX8-driven TPO luciferase reporter, dose response, RMG-I cells, cherry-pick (AID 687027); assay type: functional, cell-based;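 further: luciferase reporter driven by Pax8 target thyroperoxidase promoter measured by SteadyGlo luminescence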
Chain of Paired box protein Pax-8 (Q06710 whole entry): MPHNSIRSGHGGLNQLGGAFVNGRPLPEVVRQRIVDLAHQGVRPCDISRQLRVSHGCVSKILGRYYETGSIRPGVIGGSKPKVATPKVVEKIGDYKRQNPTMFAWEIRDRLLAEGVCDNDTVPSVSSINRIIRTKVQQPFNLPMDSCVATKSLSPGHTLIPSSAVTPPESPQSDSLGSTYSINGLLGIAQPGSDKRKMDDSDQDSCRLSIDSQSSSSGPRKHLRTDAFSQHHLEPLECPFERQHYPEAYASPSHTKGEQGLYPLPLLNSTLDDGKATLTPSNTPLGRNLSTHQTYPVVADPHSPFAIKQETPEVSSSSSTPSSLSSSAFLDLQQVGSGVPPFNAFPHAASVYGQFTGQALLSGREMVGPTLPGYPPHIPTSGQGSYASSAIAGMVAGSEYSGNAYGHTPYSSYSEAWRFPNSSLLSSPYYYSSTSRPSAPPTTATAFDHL

[5] = HEp-2 cell cytotoxicity, dose response, cytotoxicity control for RSV inhibitor project, HTS (AID 2410); assay type: functional; settings: human respiratory syncytial virus
[6] = inhibitors of intracellular T. cruzi replication, confirmation, NIH3T3 host cells, beta-gal luminescence (AID 2044); assay type: functional, cell-based;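 further: intracellular parasites grown in NIH/3T3 mouse fibroblasts as host cells; luminescent beta-galactosidase reporter signal from transgenic T. cruzi replicating inside host cells; inhibitors lower the luminescence signal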
[7] = cytotoxicity toward NIH3T3 fibroblasts, dose response, counter-screen, cell-based, ATP luminescence, mouse fibroblasts (AID 2010); assay type: functional;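 further: cells exposed to compound for about 90 hours before reading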
Streptococcus = assay: Group A Streptococcus viability loss, dose response, counter-screen for streptokinase expression inhibitor project, luminescence, BacTiterGlo (AID 1915); assay type: functional, organism-based;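 further: potency for reduction of bacterial viability or growth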
[8] = tested on: Streptococcus sp. 'group A'; assay: growth inhibition of control SK(-) GAS strain, dose response, counter-screen for streptokinase expression inhibitor project, luminescence, kanamycin, BacTiterGlo, confirmation (AID 1900); assay type: functional, organism-based
Streptokinase A = biological target: T1, Streptokinase A (Streptococcus pyogenes serotype M1, UniProt P10520); assay: S. pyogenes streptokinase expression inhibitors, potency, dose response, plasminogen activation absorbance, OD405 (AID 1914); assay type: functional, Streptococcus pyogenes M1 GAS;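 further: secreted streptokinase activity via plasminogen activation per viability signal from cell pellet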
T1 sequence (P10520 whole entry): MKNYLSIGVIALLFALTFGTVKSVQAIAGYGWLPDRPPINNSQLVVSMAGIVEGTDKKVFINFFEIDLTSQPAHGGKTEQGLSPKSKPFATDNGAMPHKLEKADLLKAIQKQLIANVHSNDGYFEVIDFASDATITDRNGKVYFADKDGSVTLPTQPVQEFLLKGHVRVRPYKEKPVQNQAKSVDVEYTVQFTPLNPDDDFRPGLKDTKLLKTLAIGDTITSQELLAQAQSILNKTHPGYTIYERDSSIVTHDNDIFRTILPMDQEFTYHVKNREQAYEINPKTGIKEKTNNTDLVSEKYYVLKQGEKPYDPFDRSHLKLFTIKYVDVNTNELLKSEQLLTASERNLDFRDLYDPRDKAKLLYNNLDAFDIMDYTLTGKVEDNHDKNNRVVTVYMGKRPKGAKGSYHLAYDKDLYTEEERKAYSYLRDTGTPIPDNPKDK

INS1 = assay: beta cell apoptosis inhibitors, cytokine rescue, dose response, luminescence, retest (AID 449756); assay type: functional, cell-based; settings: Rattus norvegicus;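 further: cell death triggered by IL-1 beta plus TNF-alpha plus IFN-gamma mixture; protective hits raise ATP signal compared with cytokine alone wells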
[9] = biological target: T2, Rac GTPase-activating protein 1 (Homo sapiens, UniProt Q9H0H5); assay: MgcRacGAP GTPase-activating activity inhibitors, confirmation, biochemical, ADP Hunter fluorescence, primary and confirmatory (AID 624330); assay type: functional
T2 sequence (Q9H0H5 whole entry): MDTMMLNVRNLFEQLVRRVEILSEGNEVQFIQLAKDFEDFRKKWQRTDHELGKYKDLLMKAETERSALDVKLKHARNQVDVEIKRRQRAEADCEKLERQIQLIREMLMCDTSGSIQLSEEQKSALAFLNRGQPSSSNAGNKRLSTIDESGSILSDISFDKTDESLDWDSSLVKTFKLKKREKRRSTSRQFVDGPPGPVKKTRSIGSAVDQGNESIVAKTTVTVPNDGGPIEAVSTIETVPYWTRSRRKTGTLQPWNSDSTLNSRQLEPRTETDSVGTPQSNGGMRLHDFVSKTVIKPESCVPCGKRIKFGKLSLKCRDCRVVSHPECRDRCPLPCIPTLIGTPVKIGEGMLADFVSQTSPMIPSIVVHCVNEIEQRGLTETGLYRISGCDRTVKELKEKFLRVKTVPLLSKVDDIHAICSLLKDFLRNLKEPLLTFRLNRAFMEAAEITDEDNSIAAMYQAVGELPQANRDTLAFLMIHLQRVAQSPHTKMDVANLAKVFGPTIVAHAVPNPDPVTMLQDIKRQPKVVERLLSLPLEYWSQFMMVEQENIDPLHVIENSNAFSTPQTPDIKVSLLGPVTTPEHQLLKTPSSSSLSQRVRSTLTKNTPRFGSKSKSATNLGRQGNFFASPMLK

[10] = NIH-3T3 fibroblast cytotoxicity, dose response, cytotoxicity control, cell-based, fluorescence, Alamar Blue, secondary assay (AID 2327); assay type: functional;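 further: NIH-3T3 mouse fibroblasts cultured with fluconazole at 8 µg/mL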

Structure (SMILES): COc1ccc(N2CCCC2)c(NC(=O)COc2ccccc2Cl)c1
- EC50 [1]: > 120 µM (not active)
- EC50 [2]: 13.1 µM (active)
- EC50 [3]: 13.9 µM (active)

Structure (SMILES): CCCCN1C(=O)/C(=C/c2ccc(N(C)C)cc2)C(=O)N(Cc2ccco2)C1=O
- AC50 (Cytochrome P450 2C9): 35.5 µM (inconclusive)
- AC50 (Cytochrome P450 2C19): 31.6 µM (inconclusive)

Structure (SMILES): COc1cccc(C(=O)Nc2cccc(OCC(=O)O)c2)c1
- EC50 [1]: > 120 µM (not active)
- EC50 [2]: 25.9 µM (active)
- EC50 [3]: > 120 µM (not active)

Structure (SMILES): CN(C)N1C(N)=C(C#N)C(c2cccc3ccccc23)C2=C1CC(c1ccccc1)CC2=O (configuration not stated)
- AC50 [4]: 1.15 µM (active)

Structure (SMILES): CCCCCSc1nnc(C)c(O)n1
- AC50 (Cytochrome P450 2C9): 8.91 µM (inconclusive)
- AC50 (Cytochrome P450 2C19): 39.8 µM (inconclusive)

Structure (SMILES): C[C@@H]1CN([C@H](C)CO)C(=O)c2cc(NC(=O)Nc3ccc(F)cc3)ccc2O[C@@H](C)CCCCO[C@H]1CN(C)C(=O)Nc1ccc(F)cc1
- AC50 (Paired box protein Pax-8): 10.8 µM (active)

Structure (SMILES): COc1cccc(Nc2nc(-c3cccs3)nc3ccccc23)c1
- AC50 [4]: 3.42 µM (active)
- CC50 [5]: 13.9 µM (active)

Structure (SMILES): Cc1c(C(=O)NCc2ccc3c(c2)OCO3)oc2ccc(S(=O)(=O)N3CCCCCC3)cc12
- EC50 [1]: 15 µM (active)
- EC50 [6]: 0.775 µM (active)
- EC50 [2]: 25.5 µM (active)
- EC50 [3]: 14.9 µM (active)
- EC50 [7]: > 60 µM (not active)

Structure (SMILES): CCC1CSC(Nc2ccc(C(=O)/C=C/c3ccc(Br)cc3)cc2)=N1 (configuration not stated)
- AC50 [4]: 2 µM (active)

Structure (SMILES): Nc1nc(-c2ccc(NC(=O)c3ccco3)cc2)cs1
- EC50 [1]: 11.7 µM (inconclusive)
- EC50 [2]: 8.2 µM (inconclusive)

Structure (SMILES): CN(C)S(=O)(=O)c1ccc(N2C(=O)CC2(/C=C/c2ccccc2)C(=O)NC2CCCC2)cc1 (configuration not stated)
- EC50 [1]: > 120 µM (not active)
- EC50 [2]: > 120 µM (not active)
- EC50 [3]: > 120 µM (not active)

Structure (SMILES): Cc1n[nH]c(C)c1CCCOc1ccccc1
- EC50 (Streptococcus): > 150 µM (not active)
- EC50 [8]: > 150 µM (not active)
- EC50 (Streptokinase A): > 150 µM (not active)

Structure (SMILES): CNc1oc(-c2ccc(Cl)cc2)nc1P(=O)(c1ccccc1)c1ccccc1
- AC50 [4]: 7.13 µM (active)

Structure (SMILES): C[C@@H]1CN([C@H](C)CO)C(=O)c2c(c3ccccc3n2C)-c2ccccc2CO[C@@H]1CN(C)C
- AC50 (Paired box protein Pax-8): 66.1 µM (active)

Structure (SMILES): C/C(=N\NC(=O)c1ccc(NS(=O)(=O)c2cccs2)cc1)c1ccccn1
- AC50 (INS1): 3.08 µM (active)

Structure (SMILES): C/C(=C\C(=O)c1ccccc1)Nc1ccc(O)cc1
- IC50 [9]: 20.2 µM (active)

Structure (SMILES): C/C(=N\NC(=S)NCc1ccccc1)c1cccc(Br)c1
- EC50 (Streptococcus): > 150 µM (not active)
- EC50 [8]: 8.85 µM (active)
- EC50 (Streptokinase A): > 150 µM (not active)

Structure (SMILES): Cc1ccc(S(=O)(=O)[N-]C2=C([n+]3ccn(CCC(C)C)c3)C(=O)c3ccccc3C2=O)cc1
- AC50 (INS1): 5.8 µM (active)

Structure (SMILES): Cc1ccc(C2CC(c3cccs3)=NN2C(=O)c2ccc(Br)o2)cc1 (configuration not stated)
- EC50 (Streptococcus): 34.1 µM (active)
- EC50 [8]: 3.12 µM (active)
- EC50 (Streptokinase A): > 150 µM (not active)

Structure (SMILES): Cc1cccc(C(=O)NN(C)c2nc(-c3ccccc3)nnc2C(F)(F)F)c1
- AC50 (Cytochrome P450 2C9): 0.316 µM (inconclusive)
- AC50 (Cytochrome P450 2C19): 0.708 µM (inconclusive)

Structure (SMILES): Oc1nc(CN2CC=C(c3ccccc3)CC2)nc2scc(-c3cccs3)c12
- EC50 (Streptococcus): > 150 µM (not active)
- EC50 [8]: 12.2 µM (active)
- EC50 (Streptokinase A): > 150 µM (not active)

Structure (SMILES): CCN1CCN(C(=O)c2ccc(CSc3ccc(C)cc3)cc2)CC1
- AC50 [4]: < 0.16 µM (active)
- EC50 [10]: > 150 µM (inactive)

Structure (SMILES): C=CC[n+]1c(/C=C/c2ccc(OC(C)=O)c(OC)c2)ccc2ccccc21
- IC50 [9]: 61.2 µM (active)
